Experimental data as given in patent publication US9695180B2 (Incyte Corporation, priority 2014, dated 2017).

Target: LSD-1 enzyme (Homo sapiens (Human), UniProt O60341)
Assay: LANCE LSD1/KDM1A demethylase assay (LSD1 histone demethylase biochemical assay)
Procedure: Example A: LSD1 Histone Demethylase Biochemical Assay
LANCE LSD1/KDM1A demethylase assay—10 μL of 1 nM LSD-1 enzyme (ENZO BML-SE544-0050) in the assay buffer (50 mM Tris, pH 7.5, 0.01% Tween-20, 25 mM NaCl, 5 mM DTT) were preincubated for 1 hour at 25° C. with 0.8 μL compound/DMSO dotted in black 384 well polystyrene plates. […] Reactions were stopped by addition of 10 μL 1× LANCE Detection Buffer (PerkinElmer CR97-100) supplemented with 1.5 nM Eu-anti-unmodified H3K4 Antibody (PerkinElmer TRF0404), and 225 nM LANCE Ultra Streptavidin (PerkinElmer TRF102) along with 0.9 mM Tranylcypromine-HCl (Millipore 616431). After stopping the reactions plates were incubated for 30 minutes and read on a PHERAstar FS plate reader (BMG Labtech).

N#Cc1ccc(-c2nc(OC[C@@H]3CCNC3)c3nccn3c2-c2ccc(C(F)(F)F)cc2)cc1 [Example 28, 4-{8-[(3R)-pyrrolidin-3-ylmethoxy]-5-[4-(trifluoromethyl)phenyl]imidazo[1,2-a]pyrazin-6-yl}benzonitrile]
IC50: 50 to 500 nM

Cc1ccc(-c2c(-c3ccc(C#N)cc3)nc(CO[C@@H]3CCNC3)c3nccn23)cc1 [Example 3, 4-(5-(4-methylphenyl)-8-{[(3R)-pyrrolidin-3-yloxy]methyl}imidazo[1,2-a]pyrazin-6-yl)benzonitrile]
IC50: 50 to 500 nM

C[C@H](O)c1nc2cc(-c3c(-c4ccc(C#N)cc4)nc(N4CCC(N(C)C)CC4)c4nccn34)ccc2n1C [Example 114, 4-(8-[4-(dimethylamino)piperidin-1-yl]-5-{2-[(1S)-1-hydroxyethyl]-1-methyl-1H-benzimidazol-5-yl}imidazo[1,2-a]pyrazin-6-yl)benzonitrile]
IC50: 50 to 500 nM

CN(C)[C@H]1CCN(Cc2nc(-c3ccc(C#N)cc3)c(-c3ccc(N4CCCC4=O)nc3)n3ccnc23)C1 [Example 56, 4-{8-{[(3S)-3-(dimethylamino)pyrrolidin-1-yl]methyl}-5-[6-(2-oxopyrrolidin-1-yl)pyridin-3-yl]imidazo[1,2-a]pyrazin-6-yl}benzonitrile]
IC50: 50 to 500 nM

Cc1ccc(-c2c(-c3ccc(C#N)cc3)nc(N(C)C(=O)N3CC[C@@H](N(C)C)C3)c3nccn23)cc1 [Example 21, (3R)—N-[6-(4-cyanophenyl)-5-(4-methylphenyl)imidazo[1,2-a]pyrazin-8-yl]-3-(dimethylamino)-N-methylpyrrolidine-1-carboxamide]
IC50: 50 to 500 nM

N#Cc1ccc(-c2nc(OC[C@@H]3CCNC3)c3nccn3c2-c2ccccc2)cc1 [Example 26, 4-{(5-phenyl)-8-[(3R)-pyrrolidin-3-ylmethoxy]imidazo[1,2-a]pyrazin-6-yl}benzonitrile]
IC50: 50 to 500 nM

CN1CC[C@@H](COc2nc(-c3ccc(C#N)cc3)c(-c3ccc(N(C)C)nc3)n3ccnc23)C1 [Example 32, 4-(5-[6-(dimethylamino)pyridin-3-yl]-8-{[(3R)-1-methylpyrrolidin-3-yl]methoxy}imidazo[1,2-a]pyrazin-6-yl)benzonitrile]
IC50: 50 to 500 nM

Cn1c(=O)oc2cc(-c3c(-c4ccc(C#N)cc4)nc(OC[C@@H]4CCCN(CCC#N)C4)c4nccn34)ccc21 [Example 64, 4-[8-{[(3R)-1-(2-cyanoethyl)piperidin-3-yl]methoxy}-5-(3-methyl-2-oxo-2,3-dihydro-1,3-benzoxazol-6-yl)imidazo[1,2-a]pyrazin-6-yl]benzonitrile]
IC50: 50 to 500 nM

CN1CCC[C@@H](COc2nc(-c3ccc(C#N)cc3)c(-c3ccc(N4CCCC4=O)nc3)n3ccnc23)C1 [Example 48, 4-{8-{[(3R)-1-methylpiperidin-3-yl]methoxy}-5-[6-(2-oxopyrrolidin-1-yl)pyridin-3-yl]imidazo[1,2-a]pyrazin-6-yl}benzonitrile]
IC50: 50 to 500 nM

CN1CCC[C@@H](COc2nc(-c3ccc(C#N)cc3)c(-c3ccc(CO)cc3)n3ccnc23)C1 [Example 74, 4-(5-[4-(hydroxymethyl)phenyl]-8-{[(3R)-1-methylpiperidin-3-yl]methoxy}imidazo[1,2-a]pyrazin-6-yl)benzonitrile]
IC50: 50 to 500 nM

CN(C)c1ncc(-c2c(-c3ccc(C#N)cc3)nc(OC[C@@H]3CCNC3)c3nccn23)cn1 [Example 31, 4-{5-[2-(dimethylamino)pyrimidin-5-yl]-8-[(3R)-pyrrolidin-3-ylmethoxy]imidazo[1,2-a]pyrazin-6-yl}benzonitrile]
IC50: 50 to 500 nM

Cc1ccc(-c2c(-c3ccc(C#N)cc3)nc(OC[C@@H]3CCNC3)c3nc(C(F)(F)F)cn23)cc1 [Example 34, 4-[5-(4-methylphenyl)-8-[(3R)-pyrrolidin-3-ylmethoxy]-2-(trifluoromethyl)imidazo[1,2-a]pyrazin-6-yl]benzonitrile]
IC50: 50 to 500 nM

CN1CCC[C@@H](COc2nc(-c3ccc(C#N)cc3)c(-c3ccc(CN4CCOCC4)c(F)c3)n3ccnc23)C1 [Example 82, 4-(5-[3-fluoro-4-(morpholin-4-ylmethyl)phenyl]-8-{[(3R)-1-methylpiperidin-3-yl]methoxy}imidazo[1,2-a]pyrazin-6-yl)benzonitrile]
IC50: 50 to 500 nM
